Target: Recombinant GST-Tie2 (Homo sapiens, UniProt Q02763)
Experiment: Tie2 fluorescence polarization kinase activity assay (TIE2-FP)
Type: biochemical
Conditions: 200 μM ATP, activated enzyme; read-out: TIE2-FP pIC50 (converted)
Method: Tie2 Fluorescence Polarization Kinase Activity Assay (TIE2-FP) Activation of Recombinant Tie2 Activation: Recombinant GST-Tie2 is activated by incubating the enzyme in 20 mM Tris-HCl, pH7.5, 12 mM MgCl2, 100 mM NaCl, 20 μM sodium vanidate, 1 mM DTT and 300 μM ATP at room temperature for 2 hours. The activation mixture is then passed through a NAP-25 desalting column (Pharmacia Biotech cat. no. 17-0852-02) to remove the free ATP. The activated enzyme is stored as aliquots at−80° C. in 20mM Tris-HCl, pH7.5 and 100 mM NaCl. Assay Conditions: The final assay conditions are 50 mM HEPES, pH7.5, 5% DMSO (when screening compounds), 200 μM ATP, 5mM MgCl2, 1 mM DTT, 50 μM sodium vanidate, 1 nM activated enzyme, and 200 μM peptide. IC50's of compounds are measured under subsaturating ATP (200 μM) and varing concentrations of activated Tie2 and peptide substrate (RFWKYEFWR-OH; MW 1873 Da, TFA salt). Panvera Anti-phosphotyrosine antibody (Cat#P2840) and PTK Green Tracer (Cat#P2842) are used to detect the phosphorylated peptide. Polarization is measured on a TECAN Polarion in 138-second cycles for 30 minutes at room temperature. IC50's are then determined from the % polarization using normal calculation methods. The IC50 values are converted to pIC50 values, i.e.,−log IC50 in Molar concentration.

Sequence of Recombinant GST-Tie2 (Q02763 23-1124): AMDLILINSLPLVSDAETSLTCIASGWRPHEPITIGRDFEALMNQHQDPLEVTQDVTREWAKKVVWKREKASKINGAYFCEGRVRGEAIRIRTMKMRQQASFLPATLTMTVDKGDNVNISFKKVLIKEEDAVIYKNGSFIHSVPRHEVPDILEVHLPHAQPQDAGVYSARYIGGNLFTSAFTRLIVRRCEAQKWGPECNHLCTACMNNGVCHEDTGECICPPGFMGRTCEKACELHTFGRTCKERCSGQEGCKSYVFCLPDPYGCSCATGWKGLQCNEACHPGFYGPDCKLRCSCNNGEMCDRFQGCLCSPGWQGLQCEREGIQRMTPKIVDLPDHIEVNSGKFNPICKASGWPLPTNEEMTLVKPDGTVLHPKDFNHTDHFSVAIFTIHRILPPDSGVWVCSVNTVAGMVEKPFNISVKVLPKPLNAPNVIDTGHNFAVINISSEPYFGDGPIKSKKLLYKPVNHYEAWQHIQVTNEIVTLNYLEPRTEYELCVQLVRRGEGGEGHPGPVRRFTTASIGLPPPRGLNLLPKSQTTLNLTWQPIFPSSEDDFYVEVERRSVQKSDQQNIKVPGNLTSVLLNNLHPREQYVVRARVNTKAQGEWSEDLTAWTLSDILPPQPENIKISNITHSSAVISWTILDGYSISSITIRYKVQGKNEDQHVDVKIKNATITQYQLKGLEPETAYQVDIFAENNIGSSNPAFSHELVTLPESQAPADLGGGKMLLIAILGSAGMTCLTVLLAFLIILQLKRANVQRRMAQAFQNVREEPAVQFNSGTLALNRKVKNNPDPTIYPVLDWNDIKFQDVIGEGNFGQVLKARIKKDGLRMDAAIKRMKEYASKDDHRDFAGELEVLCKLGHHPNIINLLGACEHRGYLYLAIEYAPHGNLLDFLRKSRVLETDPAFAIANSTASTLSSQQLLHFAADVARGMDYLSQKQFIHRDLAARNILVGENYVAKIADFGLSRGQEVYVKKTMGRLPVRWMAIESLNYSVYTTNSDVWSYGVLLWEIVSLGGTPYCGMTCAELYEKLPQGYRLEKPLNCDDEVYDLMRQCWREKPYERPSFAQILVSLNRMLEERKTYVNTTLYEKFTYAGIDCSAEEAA

Row | IC50 [µM] | Structure (SMILES)
1 | < 0.1 | Cn1nc(-c2ccc(NC(=O)Nc3cc(C(F)(F)F)ccc3F)cc2)c(C(N)=O)c1N [Example 2, 5-Amino-3-{4-[3-(2-fluoro-5-trifluoromethyl-phenyl)-ureido]-phenyl}-1-methyl-1H-pyrazole-4-carboxylic acid amide]
2 | < 0.1 | Cn1nc(-c2ccc(NC(=O)Nc3cc(C(F)(F)F)ccc3Cl)cc2)c(C(N)=O)c1N [Example 3, 5-Amino-3-{4-[3-(2-chloro-5-trifluoromethyl-phenyl)-ureido]-phenyl}-1-methyl-1H-pyrazole-4-carboxylic acid amide]
3 | 0.1 to 1 | Cn1nc(-c2ccc(NC(=O)Nc3cc(C(F)(F)F)cc(C(F)(F)F)c3)cc2)c(C(N)=O)c1N [Example 4, 5-Amino-3-{4-[3-(bis-3,5-trifluoromethyl-phenyl)-ureido]-phenyl}-1-methyl-1H-pyrazole-4-carboxylic acid amide]
4 | 0.1 to 1 | Cn1nc(-c2ccc(NC(=O)Nc3ccc4ccccc4c3)cc2)c(C(N)=O)c1N [Example 5, 5-Amino-1-methyl-3-[4-(3-naphthalen-2-yl-ureido)-phenyl]-1H-pyrazole-4-carboxylic acid amide]
5 | 1 to 10 | Cn1nc(-c2ccc(NC(=O)Nc3cccc(Cl)c3)cc2)c(C(N)=O)c1N [Example 6, 5-Amino-3-{4-[3-(3-chloro-phenyl)-ureido]-phenyl}-1-methyl-1H-pyrazole-4-carboxylic acid amide]
6 | < 0.1 | Cn1nc(-c2ccc(NC(=O)Nc3cc(Cl)ccc3Cl)cc2)c(C(N)=O)c1N [Example 7, 5-Amino-3-{4-[3-(2,5-dichloro-phenyl)-ureido]-phenyl}-1-methyl-1H-pyrazole-4-carboxylic acid amide]
7 | 1 to 10 | Cn1nc(-c2ccc(NC(=O)Nc3cccc4ccccc34)cc2)c(C(N)=O)c1N [Example 8, 5-Amino-1-methyl-3-[4-(3-naphthalen-1-yl-ureido)-phenyl]-1H-pyrazole-4-carboxylic acid amide]
8 | < 0.1 | Cn1nc(-c2ccc(NC(=O)Nc3cccc(C(F)(F)F)c3)cc2)c(C(N)=O)c1N [Example 9, 5-Amino-1-methyl-3-{4-[3-(3-trifluoromethyl-phenyl)-ureido]-phenyl}-1H-pyrazole-4-carboxylic acid amide]
9 | 0.1 to 1 | Cn1nc(-c2ccc(NC(=O)Nc3ccc(-c4ccccc4)cc3)cc2)c(C(N)=O)c1N [Example 10, 5-Amino-3-[4-(3-biphenyl4-yl-ureido)-phenyl]-1-methyl-1H-pyrazole-4-carboxylic acid amide]
10 | > 10 | Cn1nc(-c2ccc(NC(=O)Nc3c(F)cccc3F)cc2)c(C(N)=O)c1N [Example 11, 5-Amino-3-{4-[3-(2,6-difluoro-phenyl)-ureido]-phenyl}-1-methyl-1H-pyrazole-4-carboxylic acid amide]
11 | 1 to 10 | Cn1nc(-c2ccc(NC(=O)Nc3ccc4c(c3)OCO4)cc2)c(C(N)=O)c1N [Example 12, 5-Amino-3-[4-(3-benzo[1,3]dioxol-5-yl-ureido)-phenyl]-1-methyl-1H-pyrazole-4-carboxylic acid amide]
12 | 1 to 10 | Cc1ccccc1NC(=O)Nc1ccc(-c2nn(C)c(N)c2C(N)=O)cc1 [Example 13, 5-Amino-1-methyl-3-[4-(3-o-tolyl-ureido)-phenyl]-1H-pyrazole-4-carboxylic acid amide]
13 | 0.1 to 1 | Cc1cccc(NC(=O)Nc2ccc(-c3nn(C)c(N)c3C(N)=O)cc2)c1 [Example 14, 5-Amino-1-methyl-3-[4-(3-m-tolyl-ureido)-phenyl]-1H-pyrazole-4-carboxylic acid amide]
14 | 1 to 10 | Cn1nc(-c2ccc(NC(=O)Nc3cc(F)ccc3F)cc2)c(C(N)=O)c1N [Example 15, 5-Amino-3-{4-[3-(2,5-difluoro-phenyl)-ureido]-phenyl}-1-methyl-1H-pyrazole-4-carboxylic acid amide]
15 | 1 to 10 | COc1ccc(NC(=O)Nc2ccc(-c3nn(C)c(N)c3C(N)=O)cc2)c(OC)c1 [Example 16, 5-amino-3-{4-[3-(2,4-dimethoxy-phenyl)-ureido]-phenyl}-1-methyl-1H-pyrazole-4-carboxylic acid amide]
16 | 0.1 to 1 | Cn1nc(-c2ccc(NC(=O)Nc3ccc(Oc4ccccc4)cc3)cc2)c(C(N)=O)c1N [Example 17, 5-Amino-1-methyl-3-{4-[3-(4phenoxy-phenyl)-ureido]-phenyl}-1H-pyrazole-4-carboxylic acid amide]

Row | IC50 [µM] | Structure (SMILES)
17 | < 0.1 | CC(C)(C)n1nc(-c2ccc(NC(=O)Nc3cc(C(F)(F)F)ccc3Cl)cc2)c(C(N)=O)c1N [Example 18, 5-Amino-1-tert-butyl-3-{4-[3-(2-chloro-5-trifluoromethyl-phenyl)-ureido]-phenyl}-1H-pyrazole-4-carboxylic acid amide]
18 | < 0.1 | CC(C)(C)n1nc(-c2ccc(NC(=O)Nc3cc(C(F)(F)F)cc(C(F)(F)F)c3)cc2)c(C(N)=O)c1N [Example 19, 5-Amino-3-{4-[3-(bis-3,5-trifluoromethyl-phenyl)-ureido]-phenyl}-1-tert-butyl-1H-pyrazole-4-carboxylic acid amide]
19 | 0.1 to 1 | CC(C)(C)n1nc(-c2ccc(NC(=O)Nc3cccc4ccccc34)cc2)c(C(N)=O)c1N [Example 20, 5-Amino-1-tert-butyl-3-[4-(3-naphthalen-1-yl-ureido)-phenyl]-1H-pyrazole-4-carboxylic acid amide]
20 | < 0.1 | CC(C)(C)n1nc(-c2ccc(NC(=O)Nc3cccc(Cl)c3)cc2)c(C(N)=O)c1N [Example 21, 5-Amino-1-tert-butyl-3-{4-[3-(3-chloro-phenyl)-ureido]-phenyl}-1H-pyrazole-4-carboxylic acid amide]
21 | 0.1 to 1 | CC(C)(C)n1nc(-c2ccc(NC(=O)Nc3cc(Cl)ccc3Cl)cc2)c(C(N)=O)c1N [Example 22, 5-Amino-1-tert-butyl-3-{4-[3-(2,5-dichloro-phenyl)-ureido]-phenyl}-1H-pyrazole-4-carboxylic acid amide]
22 | < 0.1 | CC(C)(C)n1nc(-c2ccc(NC(=O)Nc3ccc4ccccc4c3)cc2)c(C(N)=O)c1N [Example 23, 5-Amino-1-tert-butyl-3-[4-(3-naphthalen-2-yl-ureido)-phenyl]-1H-pyrazole-4-carboxylic acid amide]
23 | < 0.1 | CC(C)(C)n1nc(-c2ccc(NC(=O)Nc3cccc(C(F)(F)F)c3)cc2)c(C(N)=O)c1N [Example 24, 5-Amino-1-tert-butyl-3-{4-[3-(3-trifluoromethyl-phenyl)-ureido]-phenyl}-1H-pyrazole-4-carboxylic acid amide]
24 | 0.1 to 1 | CC(C)(C)n1nc(-c2ccc(NC(=O)Nc3ccc(-c4ccccc4)cc3)cc2)c(C(N)=O)c1N [Example 25, 5-Amino-3-[4-(3-biphenyl-4-yl-ureido)-phenyl]-1-tert-butyl-1H-pyrazole-4-carboxylic acid amide]
25 | 1 to 10 | CC(C)(C)n1nc(-c2ccc(NC(=O)Nc3c(F)cccc3F)cc2)c(C(N)=O)c1N [Example 26, 5-Amino-1-tert-butyl-3-{4-[3-(2,6-difluoro-phenyl)-ureido]-phenyl}-1H-pyrazole-4-carboxylic acid amide]
26 | 0.1 to 1 | CC(C)(C)n1nc(-c2ccc(NC(=O)Nc3ccc4c(c3)OCO4)cc2)c(C(N)=O)c1N [Example 27, 5-Amino-3-[4-(3-benzo[1,3]dioxol-5-yl-ureido)-phenyl]-1-tert-butyl-1H-pyrazole-4-carboxylic acid amide]
27 | < 0.1 | Cc1cccc(NC(=O)Nc2ccc(-c3nn(C(C)(C)C)c(N)c3C(N)=O)cc2)c1 [Example 29, 5-Amino-1-tert-butyl-3-[4-(3-m-tolyl-ureido)-phenyl]-1H-pyrazole-4-carboxylic acid amide]
28 | 0.1 to 1 | CC(C)(C)n1nc(-c2ccc(NC(=O)Nc3cc(F)ccc3F)cc2)c(C(N)=O)c1N [Example 30, 5-Amino-1-tert-butyl-3-{4-[3-(2,5-difluoro-phenyl)-ureido]-phenyl}-1H-pyrazole-4-carboxylic acid amide]
29 | 1 to 10 | COc1ccc(NC(=O)Nc2ccc(-c3nn(C(C)(C)C)c(N)c3C(N)=O)cc2)c(OC)c1 [Example 31, 5-Amino-1-tert-butyl-3-{4-[3-(2,4-dimethoxyo-phenyl)-ureido]-phenyl}-1H-pyrazole-4-carboxylic acid amide]
30 | 0.1 to 1 | CC(C)(C)n1nc(-c2ccc(NC(=O)Nc3ccc(Oc4ccccc4)cc3)cc2)c(C(N)=O)c1N [Example 32, 5-Amino-1-tert-butyl-3-{4-[3-(4-phenoxy-phenyl)-ureido]-phenyl}-1H-pyrazole-4-carboxylic acid amide]
31 | < 0.1 | NC(=O)c1c(-c2ccc(NC(=O)Nc3cc(C(F)(F)F)ccc3F)cc2)n[nH]c1N [Example 33, 5-Amino-3-{4-[3-2-(fluoro-5-trifluoromethyl-phenyl)-ureido]-phenyl}-1H-pyrazole-4-carboxylic acid amide]
